Data set [1] in a line: Plasma protein binding by equilibrium dialysis, cynomolgus monkey plasma. The note with it: both sexes, pooled plasma, read-out: fraction unbound in plasma (fu_p). The format is in vitro ADME, cynomolgus monkeys.
Data set [2] has as its target VMAT2 (Macaca fascicularis, UniProt A0A2K5UVB8). Description: In vitro Ki for affinity to VMAT2, NHP. The format is binding.
The target in data set [3] is T1, VMAT2 (Homo sapiens, UniProt Q05940). Description: In vitro Ki for affinity to VMAT2, human. The format is binding. From the text:
Ki values for compound affinity to VMAT2 were generated from human platelet homogenates as described in [18].

The target of data set [4] is T1, VMAT2. The data set is described as follows: Human [18F]AV-133 PET target occupancy. In kind it is in vivo. Further details: from tissue; host or cells: brain of healthy male volunteers (caudate, putamen). The conditions noted are these: for URF (upregulation factor): upregulation model. From the text: The human PET study was approved by the IRB (Approval number: Pro00037529). All participants gave their written informed consent prior to participation in the study. Twelve healthy male subjects were enrolled in cohorts of 2–4 subjects each. Subjects were 29–54 years of age (mean of 43.2 years), and the study had standard inclusion/exclusion criteria, with attention to avoiding drugs which may interfere with the [^18F]AV-133 measurements or with NBI-750142 metabolism.
Subjects fasted during the study and received a small, predefined snack at least 2 h prior to oral dosing of NBI-750142. Consumption of alcohol, caffeine, nicotine or cannabis products, and grapefruit or grapefruit juice was prohibited during the study. One PET scan occurred ~1.5 h following administration of NBI-750142, and a second ~18 h post NBI-750142. These scans are referred to as “T1” and “T2,” respectively, throughout this study (Supplementary Fig. 1). T1 scans were timed to occur at approximately the time to reach maximal plasma concentration, Tmax, and provide the closest comparison to the NHP PET measurements. T2 scans should contribute data points to the lower NBI-750142 concentration portion of the PK-%TO curve and potentially reveal dose-response hysteresis (reviewed in ref. [22]). A total of five cohorts were enrolled in the study in an adaptive design, with two subjects enrolled in each cohort, except for four subjects in cohort 5. NBI-750142 doses in these cohorts ranged from 10 to 200 mg. Blood samples were obtained from each participant immediately before [^18F]AV-133 injection and just before the end of the PET scan in order to quantify plasma concentration of NBI-750142. The Cave derived from these two values was used to compare against %TO.
Prior to the radiotracer injection and PET, a low-dose CT scan was collected for attenuation correction. Subjects were administered a single dose of [^18F]AV-133 intravenously over 3 min using an infusion pump (~3.33 mL per min) through a venous catheter followed by a 10 mL saline flush. Dynamic PET imaging of the brain was acquired over 120 min following radiotracer injection on a Siemens Biograph 6 PET/CT camera with the following frame times: 6 × 30 s, 4 × 1 min, 4 × 2 min, 21 × 5 min (0–120 min). Images were reconstructed with a 168 × 168 × 81 matrix (pixel size of 2.03 mm × 2.03 mm) using an iterative reconstruction algorithm (OSEM 4 iterations, 16 subsets) and a post hoc Gaussian filter FWHM = 3 mm. Standard corrections for random, scatter, system dead time, and attenuation provided by the camera manufacturer were performed. A T1 MRI scan was acquired from eligible subjects as part of the screening visit, to identify and delineate brain anatomical regions of interest for individual PET images. MRI scans were obtained on a Siemens Espree 1.5 Tesla clinical magnet.
Reconstructed PET images were motion and decay corrected, realigned to the subject MRI and subsequently normalized into standard MNI (Montreal Neurological Institute) space using PMOD. Volumes of interest (VOIs) were defined from a template (Hammers, N30R83). Average activity concentration within each VOI was determined and time activity curves (TACs) were generated. TACs were extracted from the following VOIs: caudate and putamen (striatum), and occipital cortex. BPND, the primary outcome measure, was estimated with noninvasive Logan graphical analysis […] 1. The relationship between %TO (averaged between caudate and putamen) and average plasma concentration during the scan was analyzed with an Emax model (Eq. 2) and an upregulation model (Eq. 4), which incorporates an upregulation factor (URF; [24]).4 %TO=Drug−EC50Drug/Drug+EC50(URF−1)/Drug+EC50

Read-outs that look alike come from different tables or passages of the source.

Usually fraction unbound stands for the share of the substance not bound to proteins or other matrix. What is called Ki is the equilibrium dissociation constant of an inhibitor or competing ligand from its target.

T1 sequence (Q05940 whole entry): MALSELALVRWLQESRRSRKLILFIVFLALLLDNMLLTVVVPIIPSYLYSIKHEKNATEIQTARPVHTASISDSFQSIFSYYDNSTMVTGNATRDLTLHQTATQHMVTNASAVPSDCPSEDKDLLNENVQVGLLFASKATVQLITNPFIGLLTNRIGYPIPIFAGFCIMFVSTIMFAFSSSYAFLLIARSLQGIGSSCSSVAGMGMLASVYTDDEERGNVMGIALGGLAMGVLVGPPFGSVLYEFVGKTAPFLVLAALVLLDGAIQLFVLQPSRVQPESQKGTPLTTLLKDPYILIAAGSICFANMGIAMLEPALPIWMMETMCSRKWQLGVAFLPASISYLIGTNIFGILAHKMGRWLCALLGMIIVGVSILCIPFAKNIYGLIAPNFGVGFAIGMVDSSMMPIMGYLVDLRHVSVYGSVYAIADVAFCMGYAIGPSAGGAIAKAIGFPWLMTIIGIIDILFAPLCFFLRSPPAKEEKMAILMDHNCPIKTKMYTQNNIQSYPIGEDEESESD
Chain of VMAT2 (Macaca fascicularis, UniProt A0A2K5UVB8) (A0A2K5UVB8 1-517): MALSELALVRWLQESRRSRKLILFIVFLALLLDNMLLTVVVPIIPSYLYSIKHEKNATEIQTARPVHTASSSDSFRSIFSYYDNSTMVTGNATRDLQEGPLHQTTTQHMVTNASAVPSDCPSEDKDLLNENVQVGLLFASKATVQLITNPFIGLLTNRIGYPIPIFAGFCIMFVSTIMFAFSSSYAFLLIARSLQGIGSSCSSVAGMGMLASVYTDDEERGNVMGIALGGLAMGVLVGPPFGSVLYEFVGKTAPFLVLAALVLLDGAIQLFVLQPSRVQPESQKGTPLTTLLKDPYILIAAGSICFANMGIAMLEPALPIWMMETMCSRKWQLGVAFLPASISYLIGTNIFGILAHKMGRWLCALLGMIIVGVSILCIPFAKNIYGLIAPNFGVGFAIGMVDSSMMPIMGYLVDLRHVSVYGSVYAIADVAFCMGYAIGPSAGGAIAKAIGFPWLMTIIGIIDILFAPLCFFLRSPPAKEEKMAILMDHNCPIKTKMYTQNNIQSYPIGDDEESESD

For the compound `COc1cc2c(cc1OC)[C@H]1CN(C)[C@H](CC(C)(C)C)CN1CC2` [NBI-750142], in data set [1], the fraction unbound turned out to be 0.59. Further, the Ki in data set [2] is 18.3 nM; in data set [3], 27.7 nM. In addition, in data set [4] (Human, free PET EC50 over in vitro Ki), the “EC50:Ki Ratio” value is given as 1.4. Further, the EC50 in data set [4] (T1 and T2, occipital cortex reference, read-out: EC50, Emax model (converted)) was 105 nM; in data set [4] (T1 and T2, white matter reference (post hoc), read-out: EC50, Emax model (converted)) it was 93.2 nM; in data set [4] (T1 and T2, white matter reference (post hoc), read-out: EC50, upregulation model (converted)), 33.1 nM; in data set [4] (T1 and T2 data, occipital cortex reference, read-out: EC50, upregulation model (converted)) it was 18.9 nM; in data set [4] (T1 scans (~[…] post oral dose), Emax model, occipital cortex reference, read-out: total EC50 (average total plasma concentration vs %TO) (converted)), 75.8 nM; in data set [4] (T1 scans, Emax model, WM-derived BPND (post hoc), read-out: total EC50, white matter reference (converted)), 74.6 nM. In data set [4] (T1 scans, Emax model, total concentration multiplied by fu_p, read-out: free EC50 (free plasma concentration vs %TO) (converted)), the EC50 was 37.9 nM. The “URF (upregulation factor)” value worked out at 1.9 in data set [4] (T1 and T2, white matter reference); 2.8 in data set [4] (T1 and T2 data, occipital cortex reference). Moreover, the “VMAT2 occupancy at T2” value in data set [4] (T2 scans ~18 h post NBI-750142, occipital cortex reference) is recorded as “negative occupancy”. In data set [4] (T2 time points (~18 h post dose), WM-derived values), the “average striatal occupancy at T2” value was 0.09%.

These data come from paper PMC12089418, “Quantifying VMAT2 target occupancy at effective valbenazine doses and comparing to a novel VMAT2 inhibitor: a translational PET study” (Neuropsychopharmacology, 2025).
